Measured values reported in paper PMC5622171 (Nature Communications, 2017).

Columns and labels:
Assay in all cases: KINOMEscan kinase profiling
Assay type in all cases: binding
BMX = biological target: T1, BMX (Homo sapiens, UniProt P51813); settings: read-out: %Inhibition by 10 μM SPA70
T1 construct: purchased DiscoverX (Ambit Biosciences) KINOMEscan
Procedure, shortened: (§1)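 KINOMEscan profiling followed a published protocol. Kinases whose inhibition exceeded a set cut-off were then tested in a dilution series beginning at 30 µM.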

ULK3 = biological target: T2, ULK3 (Homo sapiens, UniProt Q6PHR2)
T2 construct: purchased DiscoverX (Ambit Biosciences) KINOMEscan
Procedure, shortened: as §1

CHEK2 = biological target: T3, CHEK2 (Homo sapiens, UniProt O96017); settings: read-out: %Inhibition by 10 μM SPA70
T3 construct: purchased DiscoverX (Ambit Biosciences) KINOMEscan
Procedure, shortened: as §1

EPHB4 = biological target: T4, EPHB4 (Homo sapiens, UniProt P54760); settings: read-out: %Inhibition by 10 μM SPA70
T4 construct: purchased DiscoverX (Ambit Biosciences) KINOMEscan
T4 sequence (P54760 16-987): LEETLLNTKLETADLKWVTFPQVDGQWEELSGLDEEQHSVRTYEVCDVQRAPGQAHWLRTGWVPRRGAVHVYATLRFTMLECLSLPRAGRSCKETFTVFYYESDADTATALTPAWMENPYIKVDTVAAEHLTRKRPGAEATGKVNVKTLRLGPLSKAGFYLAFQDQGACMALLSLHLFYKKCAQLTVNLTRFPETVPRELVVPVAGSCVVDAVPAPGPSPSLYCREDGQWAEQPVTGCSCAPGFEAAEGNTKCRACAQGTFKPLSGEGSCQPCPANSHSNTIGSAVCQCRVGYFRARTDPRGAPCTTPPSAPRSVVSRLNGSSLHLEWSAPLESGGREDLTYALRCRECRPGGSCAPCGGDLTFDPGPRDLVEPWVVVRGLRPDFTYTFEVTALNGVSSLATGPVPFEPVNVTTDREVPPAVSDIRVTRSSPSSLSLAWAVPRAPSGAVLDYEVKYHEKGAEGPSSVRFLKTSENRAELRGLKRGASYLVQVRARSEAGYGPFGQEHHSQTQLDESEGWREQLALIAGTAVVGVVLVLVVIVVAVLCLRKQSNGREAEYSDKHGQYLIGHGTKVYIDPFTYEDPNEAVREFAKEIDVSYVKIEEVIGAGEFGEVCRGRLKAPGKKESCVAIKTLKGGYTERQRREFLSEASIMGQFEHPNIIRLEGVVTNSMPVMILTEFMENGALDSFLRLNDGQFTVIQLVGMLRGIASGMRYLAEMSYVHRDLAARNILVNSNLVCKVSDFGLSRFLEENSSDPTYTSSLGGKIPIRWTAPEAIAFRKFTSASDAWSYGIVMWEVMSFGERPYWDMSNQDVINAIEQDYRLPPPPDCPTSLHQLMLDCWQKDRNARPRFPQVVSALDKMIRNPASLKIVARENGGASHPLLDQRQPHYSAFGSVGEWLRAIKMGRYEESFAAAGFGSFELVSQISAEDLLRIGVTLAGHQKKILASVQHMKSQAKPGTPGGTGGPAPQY
Procedure, shortened: as §1

AAK1 = biological target: T5, AAK1 (Homo sapiens, UniProt Q2M2I8); settings: read-out: %Inhibition by 10 μM SPA70
T5 construct: purchased DiscoverX (Ambit Biosciences) KINOMEscan
Procedure, shortened: as §1

TESK1 = biological target: T6, TESK1 (Homo sapiens, UniProt Q15569); settings: read-out: %Inhibition by 10 μM SPA70
T6 construct: purchased DiscoverX (Ambit Biosciences) KINOMEscan
Procedure, shortened: as §1

MEK3 = biological target: T7, MEK3 (Homo sapiens, UniProt P46734); settings: read-out: %Inhibition by 10 μM SPA70
T7 construct: purchased DiscoverX (Ambit Biosciences) KINOMEscan
Procedure, shortened: as §1

SYK = biological target: T8, SYK (Homo sapiens, UniProt P43405)
T8 construct: purchased DiscoverX (Ambit Biosciences) KINOMEscan
Procedure, shortened: as §1

CSNK2A2 = biological target: T9, CSNK2A2 (Homo sapiens, UniProt P19784); settings: read-out: %Inhibition by 10 μM SPA70
T9 construct: purchased DiscoverX (Ambit Biosciences) KINOMEscan
Procedure, shortened: as §1

STK35 = biological target: T10, STK35 (Homo sapiens, UniProt Q8TDR2); settings: read-out: %Inhibition by 10 μM SPA70
T10 construct: purchased DiscoverX (Ambit Biosciences) KINOMEscan
Procedure, shortened: as §1

MAPKAPK2 = biological target: T11, MAPKAPK2 (Homo sapiens, UniProt P49137); settings: read-out: %Inhibition by 10 μM SPA70
T11 construct: purchased DiscoverX (Ambit Biosciences) KINOMEscan
Procedure, shortened: as §1

PIK3CD = biological target: T12, PIK3CD (Homo sapiens, UniProt O00329); settings: read-out: %Inhibition by 10 μM SPA70
T12 construct: purchased DiscoverX (Ambit Biosciences) KINOMEscan
Procedure, shortened: as §1

CDK11 = biological target: T13, CDK11 (Homo sapiens, UniProt Q9BWU1)
T13 construct: purchased DiscoverX (Ambit Biosciences) KINOMEscan
T13 sequence (Q9BWU1 whole entry): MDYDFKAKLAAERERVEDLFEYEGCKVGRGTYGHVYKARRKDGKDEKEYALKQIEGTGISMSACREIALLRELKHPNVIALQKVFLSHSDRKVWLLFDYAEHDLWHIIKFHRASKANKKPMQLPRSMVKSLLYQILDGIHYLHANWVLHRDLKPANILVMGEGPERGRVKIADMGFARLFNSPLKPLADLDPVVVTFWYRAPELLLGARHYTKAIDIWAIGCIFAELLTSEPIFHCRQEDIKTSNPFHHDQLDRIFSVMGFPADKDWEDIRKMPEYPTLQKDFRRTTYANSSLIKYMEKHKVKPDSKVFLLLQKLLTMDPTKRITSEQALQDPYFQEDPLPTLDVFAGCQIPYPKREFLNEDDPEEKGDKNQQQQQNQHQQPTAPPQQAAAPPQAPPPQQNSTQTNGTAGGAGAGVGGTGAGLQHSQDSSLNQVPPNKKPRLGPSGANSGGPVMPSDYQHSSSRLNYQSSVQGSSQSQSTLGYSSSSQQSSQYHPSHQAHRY
Procedure, shortened: as §1

MAP4K2 = biological target: T14, MAP4K2 (Homo sapiens, UniProt Q12851); settings: read-out: %Inhibition by 10 μM SPA70
T14 construct: purchased DiscoverX (Ambit Biosciences) KINOMEscan
Procedure, shortened: as §1

ERK1 = biological target: T15, ERK1 (Homo sapiens, UniProt P27361); settings: read-out: %Inhibition by 10 μM SPA70
T15 construct: purchased DiscoverX (Ambit Biosciences) KINOMEscan
Procedure, shortened: as §1

PAK7 = biological target: T16, PAK7 (Homo sapiens, UniProt Q9P286); settings: read-out: %Inhibition by 10 μM SPA70
T16 construct: purchased DiscoverX (Ambit Biosciences) KINOMEscan
T16 sequence (Q9P286 whole entry): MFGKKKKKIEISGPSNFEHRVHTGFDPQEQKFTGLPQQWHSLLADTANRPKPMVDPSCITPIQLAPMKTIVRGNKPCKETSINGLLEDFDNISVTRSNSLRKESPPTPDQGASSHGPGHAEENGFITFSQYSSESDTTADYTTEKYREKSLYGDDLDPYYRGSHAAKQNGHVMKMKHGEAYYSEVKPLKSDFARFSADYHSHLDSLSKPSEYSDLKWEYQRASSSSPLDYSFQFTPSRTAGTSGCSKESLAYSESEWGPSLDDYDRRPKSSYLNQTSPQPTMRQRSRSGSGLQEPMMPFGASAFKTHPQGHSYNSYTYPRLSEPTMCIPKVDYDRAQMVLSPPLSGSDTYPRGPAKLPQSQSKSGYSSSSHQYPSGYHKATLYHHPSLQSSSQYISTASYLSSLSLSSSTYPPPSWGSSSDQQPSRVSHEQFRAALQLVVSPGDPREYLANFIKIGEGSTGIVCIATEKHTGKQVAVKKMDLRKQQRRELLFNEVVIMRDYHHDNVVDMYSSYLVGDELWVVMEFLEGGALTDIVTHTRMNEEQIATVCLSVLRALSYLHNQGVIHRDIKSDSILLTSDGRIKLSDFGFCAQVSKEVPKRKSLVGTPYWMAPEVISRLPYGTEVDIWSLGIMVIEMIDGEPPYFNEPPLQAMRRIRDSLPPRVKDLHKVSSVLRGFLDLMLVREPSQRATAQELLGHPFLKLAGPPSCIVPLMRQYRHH
Procedure, shortened: as §1

EPHA1 = biological target: T17, EPHA1 (Homo sapiens, UniProt P21709); settings: read-out: %Inhibition by 10 μM SPA70
T17 construct: purchased DiscoverX (Ambit Biosciences) KINOMEscan
Procedure, shortened: as §1

MLK1 = biological target: T18, MLK1 (Homo sapiens, UniProt P80192); settings: read-out: %Inhibition by 10 μM SPA70
T18 construct: purchased DiscoverX (Ambit Biosciences) KINOMEscan
Procedure, shortened: as §1

PKN1 = biological target: T19, PKN1 (Homo sapiens, UniProt Q16512); settings: read-out: %Inhibition by 10 μM SPA70
T19 construct: purchased DiscoverX (Ambit Biosciences) KINOMEscan
Procedure, shortened: as §1

LZK = biological target: T20, LZK (Homo sapiens, UniProt O43283)
T20 construct: purchased DiscoverX (Ambit Biosciences) KINOMEscan
T20 sequence (O43283 whole entry): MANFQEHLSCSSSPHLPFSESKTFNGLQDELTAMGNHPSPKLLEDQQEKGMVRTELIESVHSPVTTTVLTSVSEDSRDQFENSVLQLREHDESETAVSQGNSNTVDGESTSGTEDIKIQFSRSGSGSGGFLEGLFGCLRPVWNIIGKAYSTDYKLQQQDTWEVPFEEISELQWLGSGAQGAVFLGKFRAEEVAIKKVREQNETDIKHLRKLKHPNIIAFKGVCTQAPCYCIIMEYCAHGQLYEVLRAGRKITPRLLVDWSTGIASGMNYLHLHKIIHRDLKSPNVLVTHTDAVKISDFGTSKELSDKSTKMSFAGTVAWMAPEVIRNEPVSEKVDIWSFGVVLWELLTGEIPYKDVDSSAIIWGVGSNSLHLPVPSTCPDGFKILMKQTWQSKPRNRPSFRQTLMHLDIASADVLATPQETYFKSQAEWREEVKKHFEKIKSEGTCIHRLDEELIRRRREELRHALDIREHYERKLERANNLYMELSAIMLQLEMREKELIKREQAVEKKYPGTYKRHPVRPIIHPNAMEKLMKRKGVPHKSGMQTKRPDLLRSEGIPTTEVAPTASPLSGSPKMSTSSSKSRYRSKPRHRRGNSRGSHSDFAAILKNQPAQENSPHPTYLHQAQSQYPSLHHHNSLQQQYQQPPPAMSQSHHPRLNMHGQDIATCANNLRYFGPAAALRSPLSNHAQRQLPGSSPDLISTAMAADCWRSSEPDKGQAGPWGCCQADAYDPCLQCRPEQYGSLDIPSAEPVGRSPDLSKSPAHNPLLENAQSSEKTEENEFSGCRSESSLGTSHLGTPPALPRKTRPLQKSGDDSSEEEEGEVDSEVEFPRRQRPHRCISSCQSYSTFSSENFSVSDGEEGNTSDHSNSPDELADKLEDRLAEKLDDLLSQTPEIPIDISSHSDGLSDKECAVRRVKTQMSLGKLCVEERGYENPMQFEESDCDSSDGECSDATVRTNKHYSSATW
Procedure, shortened: as §1

FER = biological target: T21, FER (Homo sapiens, UniProt P16591); settings: read-out: %Inhibition by 10 μM SPA70
T21 construct: purchased DiscoverX (Ambit Biosciences) KINOMEscan
Procedure, shortened: as §1

DYRK1A = biological target: T22, DYRK1A (Homo sapiens, UniProt Q13627); settings: read-out: %Inhibition by 10 μM SPA70
T22 construct: purchased DiscoverX (Ambit Biosciences) KINOMEscan
Procedure, shortened: as §1

p38-beta = biological target: T23, p38-beta (Homo sapiens, UniProt Q15759); settings: read-out: %Inhibition by 10 μM SPA70
T23 construct: purchased DiscoverX (Ambit Biosciences) KINOMEscan
Procedure, shortened: as §1

MEK1 = biological target: T24, MEK1 (Homo sapiens, UniProt Q02750); settings: read-out: %Inhibition by 10 μM SPA70
T24 construct: purchased DiscoverX (Ambit Biosciences) KINOMEscan
Procedure, shortened: as §1

BMPR1A = biological target: T25, BMPR1A (Homo sapiens, UniProt P36894); settings: read-out: %Inhibition by 10 μM SPA70
T25 construct: purchased DiscoverX (Ambit Biosciences) KINOMEscan
Procedure, shortened: as §1

[1] = biological target: T26, JAK2(JH1domain-catalytic) (Homo sapiens, UniProt O60674)
T26 construct: JAK2(JH1domain-catalytic); purchased DiscoverX (Ambit Biosciences) KINOMEscan
T26 sequence (O60674 849-1132 limits assumed): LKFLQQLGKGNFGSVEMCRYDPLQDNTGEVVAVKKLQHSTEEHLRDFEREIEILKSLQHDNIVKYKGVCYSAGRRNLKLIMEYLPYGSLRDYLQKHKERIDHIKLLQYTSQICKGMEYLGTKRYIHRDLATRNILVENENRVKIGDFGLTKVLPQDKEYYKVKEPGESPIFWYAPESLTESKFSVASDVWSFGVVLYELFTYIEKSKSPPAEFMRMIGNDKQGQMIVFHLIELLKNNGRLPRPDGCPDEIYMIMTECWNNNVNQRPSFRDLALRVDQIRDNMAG
Procedure, shortened: as §1

MAP4K3 = biological target: T27, MAP4K3 (Homo sapiens, UniProt Q8IVH8)
T27 construct: purchased DiscoverX (Ambit Biosciences) KINOMEscan
Procedure, shortened: as §1

ACVRL1 = biological target: T28, ACVRL1 (Homo sapiens, UniProt P37023); settings: read-out: %Inhibition by 10 μM SPA70
T28 construct: purchased DiscoverX (Ambit Biosciences) KINOMEscan
Procedure, shortened: as §1

MAP3K1 = biological target: T29, MAP3K1 (Homo sapiens, UniProt Q13233); settings: read-out: %Inhibition by 10 μM SPA70
T29 construct: purchased DiscoverX (Ambit Biosciences) KINOMEscan
Procedure, shortened: as §1

QSK = biological target: T30, QSK (Homo sapiens, UniProt Q9Y2K2)
T30 construct: purchased DiscoverX (Ambit Biosciences) KINOMEscan
Procedure, shortened: as §1

LIMK1 = biological target: T31, LIMK1 (Homo sapiens, UniProt P53667); settings: read-out: %Inhibition by 10 μM SPA70
T31 construct: purchased DiscoverX (Ambit Biosciences) KINOMEscan
Procedure, shortened: as §1

AKT1 = biological target: T32, AKT1 (Homo sapiens, UniProt P31749); settings: read-out: %Inhibition by 10 μM SPA70
T32 construct: purchased DiscoverX (Ambit Biosciences) KINOMEscan
Procedure, shortened: as §1

ASK2 = biological target: T33, ASK2 (Homo sapiens, UniProt O95382); settings: read-out: %Inhibition by 10 μM SPA70
T33 construct: purchased DiscoverX (Ambit Biosciences) KINOMEscan
Procedure, shortened: as §1

RIPK2 = biological target: T34, RIPK2 (Homo sapiens, UniProt O43353); settings: read-out: %Inhibition by 10 μM SPA70
T34 construct: purchased DiscoverX (Ambit Biosciences) KINOMEscan
Procedure, shortened: as §1

JNK1 = biological target: T35, JNK1 (Homo sapiens, UniProt P45983)
T35 construct: purchased DiscoverX (Ambit Biosciences) KINOMEscan
Procedure, shortened: as §1

CAMK2D = biological target: T36, CAMK2D (Homo sapiens, UniProt Q13557); settings: read-out: %Inhibition by 10 μM SPA70
T36 construct: purchased DiscoverX (Ambit Biosciences) KINOMEscan
T36 sequence (Q13557 whole entry): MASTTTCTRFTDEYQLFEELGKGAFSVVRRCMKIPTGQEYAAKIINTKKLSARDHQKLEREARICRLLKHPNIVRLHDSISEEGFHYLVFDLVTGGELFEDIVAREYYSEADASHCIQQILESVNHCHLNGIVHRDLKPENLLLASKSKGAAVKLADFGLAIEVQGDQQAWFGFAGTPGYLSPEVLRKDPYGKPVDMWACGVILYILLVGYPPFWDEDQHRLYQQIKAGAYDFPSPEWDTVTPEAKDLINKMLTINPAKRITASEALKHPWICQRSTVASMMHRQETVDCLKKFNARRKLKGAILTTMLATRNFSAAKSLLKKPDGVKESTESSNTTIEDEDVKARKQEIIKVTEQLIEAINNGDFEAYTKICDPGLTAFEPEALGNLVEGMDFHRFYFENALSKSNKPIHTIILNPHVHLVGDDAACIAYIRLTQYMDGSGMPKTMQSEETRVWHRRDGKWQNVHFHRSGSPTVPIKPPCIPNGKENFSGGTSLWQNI
Procedure, shortened: as §1

PLK3 = biological target: T37, PLK3 (Homo sapiens, UniProt Q9H4B4); settings: read-out: %Inhibition by 10 μM SPA70
T37 construct: purchased DiscoverX (Ambit Biosciences) KINOMEscan
Procedure, shortened: as §1

CDKL5 = biological target: T38, CDKL5 (Homo sapiens, UniProt O76039); settings: read-out: %Inhibition by 10 μM SPA70
T38 construct: purchased DiscoverX (Ambit Biosciences) KINOMEscan
Procedure, shortened: as §1

CLK3 = biological target: T39, CLK3 (Homo sapiens, UniProt P49761); settings: read-out: %Inhibition by 10 μM SPA70
T39 construct: purchased DiscoverX (Ambit Biosciences) KINOMEscan
Procedure, shortened: as §1

CDK4-cyclinD1 = biological target: T40, CDK4-cyclinD1 (Homo sapiens, UniProt P11802); settings: read-out: %Inhibition by 10 μM SPA70
T40 construct: purchased DiscoverX (Ambit Biosciences) KINOMEscan
T40 sequence (P11802 whole entry): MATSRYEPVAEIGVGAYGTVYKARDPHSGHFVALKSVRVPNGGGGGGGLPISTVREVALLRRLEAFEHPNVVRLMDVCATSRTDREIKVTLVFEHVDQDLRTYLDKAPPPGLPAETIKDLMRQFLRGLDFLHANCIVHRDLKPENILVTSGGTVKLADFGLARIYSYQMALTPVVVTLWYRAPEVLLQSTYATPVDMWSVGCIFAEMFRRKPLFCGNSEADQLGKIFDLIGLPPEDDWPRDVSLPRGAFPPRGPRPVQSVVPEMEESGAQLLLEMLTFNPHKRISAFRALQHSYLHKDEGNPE
T40 sequence (P24385 whole entry partner): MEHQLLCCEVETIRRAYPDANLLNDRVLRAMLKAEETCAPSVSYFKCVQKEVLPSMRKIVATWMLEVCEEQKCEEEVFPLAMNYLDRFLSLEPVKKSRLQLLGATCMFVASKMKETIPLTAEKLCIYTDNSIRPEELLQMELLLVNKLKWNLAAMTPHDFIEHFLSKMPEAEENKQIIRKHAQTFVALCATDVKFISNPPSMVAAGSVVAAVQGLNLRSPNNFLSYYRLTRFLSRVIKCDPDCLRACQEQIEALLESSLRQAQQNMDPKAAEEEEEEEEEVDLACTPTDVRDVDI
Procedure, shortened: as §1

MST3 = biological target: T41, MST3 (Homo sapiens, UniProt Q9Y6E0)
T41 construct: purchased DiscoverX (Ambit Biosciences) KINOMEscan
Procedure, shortened: as §1

[2] = biological target: T42, TYK2(JH1domain-catalytic) (Homo sapiens, UniProt P29597)
T42 construct: TYK2(JH1domain-catalytic); purchased DiscoverX (Ambit Biosciences) KINOMEscan
T42 sequence (P29597 871-1187 limits assumed): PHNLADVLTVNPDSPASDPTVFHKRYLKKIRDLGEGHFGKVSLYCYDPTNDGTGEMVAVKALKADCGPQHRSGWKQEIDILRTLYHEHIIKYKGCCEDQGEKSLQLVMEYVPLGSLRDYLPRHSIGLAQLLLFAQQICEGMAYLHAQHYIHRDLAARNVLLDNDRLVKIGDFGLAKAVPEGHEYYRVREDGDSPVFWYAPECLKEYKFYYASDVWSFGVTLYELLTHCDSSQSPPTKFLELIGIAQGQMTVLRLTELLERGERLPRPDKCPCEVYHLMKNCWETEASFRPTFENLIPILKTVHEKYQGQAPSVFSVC
Procedure, shortened: as §1

COc1ccc(OC)c(-n2nnc(S(=O)(=O)c3ccc(C(C)(C)C)cc3)c2C)c1 [SPA70]
9%: %Inhibition by 10 μM SPA70 (JNK1)
11%: inhibition at 10 µM (AAK1) | inhibition at 10 µM (MEK1)
2%: %Inhibition by 10 μM SPA70 (ULK3) | inhibition at 10 µM (BMPR1A)
19%: inhibition at 10 µM (FER)
43%: %Inhibition by 10 μM SPA70 (QSK)
33%: %Inhibition by 10 μM SPA70 [1] | inhibition at 10 µM (PLK3)
0%: inhibition at 10 µM (BMX) | inhibition at 10 µM (EPHB4) | inhibition at 10 µM (TESK1) | inhibition at 10 µM (MEK3) | %Inhibition by 10 μM SPA70 (SYK) | inhibition at 10 µM (STK35) | inhibition at 10 µM (PIK3CD) | %Inhibition by 10 μM SPA70 (CDK11) | inhibition at 10 µM (MAP4K2) | inhibition at 10 µM (ERK1) | inhibition at 10 µM (EPHA1) | inhibition at 10 µM (MLK1) | inhibition at 10 µM (PKN1) | %Inhibition by 10 μM SPA70 (LZK) | inhibition at 10 µM (DYRK1A) | inhibition at 10 µM (p38-beta) | %Inhibition by 10 μM SPA70 (MAP4K3) | inhibition at 10 µM (MAP3K1) | inhibition at 10 µM (LIMK1) | inhibition at 10 µM (AKT1) | inhibition at 10 µM (ASK2) | inhibition at 10 µM (RIPK2) | inhibition at 10 µM (CAMK2D) | inhibition at 10 µM (CLK3) | %Inhibition by 10 μM SPA70 (MST3) | %Inhibition by 10 μM SPA70 [2]
8%: inhibition at 10 µM (CDKL5)
26%: inhibition at 10 µM (PAK7)
20%: inhibition at 10 µM (MAPKAPK2) | inhibition at 10 µM (CDK4-cyclinD1)
6%: inhibition at 10 µM (ACVRL1)
23%: inhibition at 10 µM (CHEK2)
10%: inhibition at 10 µM (CSNK2A2)
